Measured values taken from PMC11053447, “Human ABC and SLC Transporters: The Culprit Responsible for Unspecific PSMA-617 Uptake?” (Pharmaceuticals, 2024).
Where two headings read alike, the source gives them in different places.

What was measured:
human PEPT2 = biological target: T1, human PEPT2 (Homo sapiens, UniProt Q16348); assay: SLC transporter substrate assay, CHO-K1-PEPT2 vs control CHO-K1 cells; conditions: 20 min; for Max. transporter-specific fold accumulation, without inhibitor / Max. transporter-specific fold accumulation, with inhibitor: 0.3 µM; for Max. transporter-specific fold accumulation, with inhibitor: Cefadroxil
T1 sequence (Q16348 1-729): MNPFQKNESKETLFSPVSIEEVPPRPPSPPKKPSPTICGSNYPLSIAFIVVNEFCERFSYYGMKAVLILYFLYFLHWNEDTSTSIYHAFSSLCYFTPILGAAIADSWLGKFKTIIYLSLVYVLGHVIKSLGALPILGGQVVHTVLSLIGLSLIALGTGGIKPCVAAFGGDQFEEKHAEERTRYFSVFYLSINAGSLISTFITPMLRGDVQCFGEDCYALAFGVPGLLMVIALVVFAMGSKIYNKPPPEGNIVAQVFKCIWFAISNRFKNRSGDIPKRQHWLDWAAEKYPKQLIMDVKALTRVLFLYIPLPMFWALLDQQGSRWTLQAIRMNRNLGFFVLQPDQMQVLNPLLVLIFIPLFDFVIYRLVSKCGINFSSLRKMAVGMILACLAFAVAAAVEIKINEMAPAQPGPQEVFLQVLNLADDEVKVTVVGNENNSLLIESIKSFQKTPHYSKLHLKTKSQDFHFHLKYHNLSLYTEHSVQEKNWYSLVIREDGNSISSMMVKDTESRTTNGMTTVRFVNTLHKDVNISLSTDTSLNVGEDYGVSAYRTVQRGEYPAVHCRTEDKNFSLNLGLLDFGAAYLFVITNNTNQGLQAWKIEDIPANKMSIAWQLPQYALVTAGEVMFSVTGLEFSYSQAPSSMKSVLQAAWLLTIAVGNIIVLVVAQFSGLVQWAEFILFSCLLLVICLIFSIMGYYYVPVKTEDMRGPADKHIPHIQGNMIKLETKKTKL
Experimental: The described cells were plated onto standard 24-well tissue culture plates at densities of 5 × 10^5 cells/well. […] Before starting the experiment, the cells were prepared by removing the medium and washing the cells twice with 300 µL of assay buffer. […] The cells were lysed by adding 300 µL of 0.1N NaOH, they were incubated for 10 min at 37 °C and 100 µL samples were taken from all the wells.
The amount of protein in each well was quantified using the BCA kit for protein determination (Sigma-Aldrich, St Louis, MO, USA). Positive controls were performed using a separate 96-well plate format according to Table S8 in SI4.
SI4. Results of transporter substrate assays (SLC)
Table S8: Parameters of positive controls, control cell lines and plating for SLC transporters assays.
KH: Krebs-Henseleit buffer, HBSS: Hank's balanced salt solution, MES: 2 -(N-morpholino) ethanesulfonic acid, cGMP:
Guanosine cyclic phosphate, E3S: Estrone -3-sulfate, Gly-Sar: Glycylsarcosine, MPP+: 1-methyl-4-phenylpyridinium.
Calculation of fold accumulation values for SLC transporter substrate assays The fold accumulation value was defined as the ratio of uptake of the test substance (TS) or probe substrate into transfected and control cells. If the fold accumulation is > 2 and can be inhibited by a known inhibitor of the transporter, the test substance can be considered as a substrate of the respective transporter.
Fold accumulation = UPTTRP
• UPTTRP: accumulated amount of test substance (TS) or probe substrate in transfected cells normalized by protein content […]
• UPTCTRL: accumulated amount of test substance (TS) or probe substrate in control cells normalized by protein content […]
Positive control conducted at pH 5.0.
Gly-Sar: Glycylsarcosine.

MDR1 = MDR1 (Homo sapiens, UniProt P08183); conditions: for Relative inhibition / ATP dependent transport / Relative ATP dependent transport: NMQ probe; for ATP dependent transport / Relative ATP dependent transport: mean (n=3) ± SD
Chain of MDR1 (P08183 whole entry): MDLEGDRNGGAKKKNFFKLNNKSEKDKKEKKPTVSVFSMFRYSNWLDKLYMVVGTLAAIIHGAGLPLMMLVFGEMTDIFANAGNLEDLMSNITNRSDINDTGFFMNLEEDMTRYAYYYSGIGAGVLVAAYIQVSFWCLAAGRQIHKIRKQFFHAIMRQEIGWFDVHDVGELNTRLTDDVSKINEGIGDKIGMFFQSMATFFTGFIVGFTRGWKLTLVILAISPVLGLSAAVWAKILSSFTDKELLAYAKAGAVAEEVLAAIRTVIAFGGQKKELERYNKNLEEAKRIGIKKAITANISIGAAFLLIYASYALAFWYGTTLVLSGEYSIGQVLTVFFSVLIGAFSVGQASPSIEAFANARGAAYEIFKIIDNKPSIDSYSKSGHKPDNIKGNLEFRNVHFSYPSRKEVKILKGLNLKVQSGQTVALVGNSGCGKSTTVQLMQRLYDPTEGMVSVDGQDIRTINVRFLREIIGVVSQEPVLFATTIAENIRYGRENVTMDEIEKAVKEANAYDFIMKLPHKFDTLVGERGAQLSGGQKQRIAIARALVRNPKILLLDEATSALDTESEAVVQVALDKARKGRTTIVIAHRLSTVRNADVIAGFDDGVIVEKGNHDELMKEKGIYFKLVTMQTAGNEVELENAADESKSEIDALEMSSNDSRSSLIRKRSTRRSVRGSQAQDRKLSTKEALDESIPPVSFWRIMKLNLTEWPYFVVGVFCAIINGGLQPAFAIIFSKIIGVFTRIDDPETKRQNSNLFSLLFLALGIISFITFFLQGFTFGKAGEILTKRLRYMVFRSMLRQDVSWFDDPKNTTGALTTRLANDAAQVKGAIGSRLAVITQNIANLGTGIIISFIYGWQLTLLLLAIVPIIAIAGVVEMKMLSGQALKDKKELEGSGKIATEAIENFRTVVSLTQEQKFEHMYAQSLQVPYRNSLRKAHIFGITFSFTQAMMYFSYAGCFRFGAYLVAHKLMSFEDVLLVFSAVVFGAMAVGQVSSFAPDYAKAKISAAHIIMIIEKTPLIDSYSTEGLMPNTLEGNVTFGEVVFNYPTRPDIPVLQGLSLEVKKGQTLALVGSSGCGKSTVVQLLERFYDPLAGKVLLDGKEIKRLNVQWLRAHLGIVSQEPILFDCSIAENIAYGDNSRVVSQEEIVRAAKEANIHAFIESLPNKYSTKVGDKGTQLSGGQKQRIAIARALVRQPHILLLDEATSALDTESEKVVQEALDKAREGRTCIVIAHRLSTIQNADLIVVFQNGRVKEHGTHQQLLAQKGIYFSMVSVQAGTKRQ
Experimental: The incubations were carried out in the presence of 4 mM ATP or AMP to distinguish between transporter-mediated uptake and passive diffusion into the vesicles. […] Afterwards, the reaction mixtures were pre-incubated for 15 min at 37 °C for MRP1 or at 32 °C for BCRP, MDR1 and MRP4, respectively. The transporter assay was initiated through the addition of 25 μL of pre-warmed 12 mM MgATP (or 12 mM AMP in assay buffer as a background control). The reactions were quenched through the addition of 200 μL of ice-cold washing buffer and immediate filtration via glass fiber filters mounted onto a 96-well plate (filter plate). The filters were washed (5 × 200 μL of ice-cold washing buffer) and dried, and the amount of probe substrate inside the filtered vesicles was determined using LSC. The experiments were conducted in triplicate.
Calculation of ATP-dependent transport and inhibition for vesicular transport inhibition
For all wells the amount of the translocated probe substrate was determined in counts per minute (cpm).
ATP-dependent transport (pmol/mg protein/min) is calculated for each concentration using the following
𝐴𝑐𝑐𝐴𝑇𝑃 ∙ 𝑉 ∙ 𝐶𝐶 𝐴𝑐𝑐𝐴𝑀𝑃 ∙𝑉 ∙𝐶𝐶
𝐴𝑇𝑃 − 𝑑𝑒𝑝𝑒𝑛𝑑𝑒𝑛𝑡 𝑎𝑐𝑐𝑢𝑚𝑢𝑙𝑎𝑡𝑖𝑜𝑛 = ( 𝑇𝐶𝑃𝑀 𝑠𝑢𝑏) − ( 𝑇𝐶𝑃𝑀 𝑠𝑢𝑏)
• AccATP: probe substrate accumulation with ATP (cpm)
• AccAMP: probe substrate accumulation with AMP (cpm)
• Tcpm: cpm in dosing solution V: volume per well (µL)
• CCsub: probe substrate concentration (µM)
• Prot: total protein per well (mg)
• t: incubation time (min)
Relative ATP-dependent transport (%) values were calculated using the following equation:
𝑅𝑒𝑙𝑎𝑡𝑖𝑣𝑒 𝐴𝑇𝑃 − 𝑑𝑒𝑝𝑒𝑛𝑑𝑒𝑛𝑡 𝑡𝑟𝑎𝑛𝑠𝑝𝑜𝑟𝑡 (%) = 𝐴 − 𝐵 ∙ 100
• A: amount of translocated substrate in the presence of test substance (TS) and ATP
• B: amount of translocated substrate in the presence of test substance (TS) and AMP
• C: amount of translocated substrate in the presence of solvent and ATP
• D: amount of translocated substrate in the presence of solvent and AMP
Relative inhibition (%) is calculated by setting probe substrate transport in the absence of test substance as
𝑅𝑒𝑙𝑎𝑡𝑖𝑣𝑒 𝑖𝑛ℎ𝑖𝑏𝑖𝑡𝑖𝑜𝑛 (%) = 𝐴𝑐𝑐𝑆𝑝𝑒𝑐𝑖𝑓𝑖𝑐,𝑥 ∙100
• Accspecific,x: transporter specific accumulation for a given sample (pmol/mg/min)
• Accspecific,vehicle: transporter specific accumulation for a solvent control (pmol/mg/min)
Data are expressed as mean (n=3)
N-methyl quinidine (NMQ) measured in the vesicular transport inhibition assay.
Nominal ATP Relative ATP Relative
Compound concentration [µM] dependent transport dependent transport inhibition [%]
[pmol/mg/min] [% of control]
Data are expressed as mean (n=3) ± SD.

[1] = pH 5.0, 0.03 µM nominal + Cefadroxil 200 µM
[2] = pH 5.0, 0.03 µM nominal, no inhibitor
[3] = pH 5.0, 0.30 µM nominal + Cefadroxil 200 µM
[4] = pH 5.0, 0.30 µM nominal, no inhibitor
[5] = pH 6.0, 0.03 µM nominal + Cefadroxil 200 µM
[6] = pH 6.0, 0.03 µM nominal, no inhibitor
[7] = pH 6.0, 0.30 µM nominal + Cefadroxil 200 µM
[8] = pH 6.0, 0.30 µM nominal, no inhibitor

[3H]C(c1ccc2ccccc2c1)C([3H])(NC(=O)C1CCC(CNC(=O)CN2CCN(CC(=O)[O-])CCN(CC(=O)[O-])CCN(CC(=O)[O-])CC2)CC1)C(=O)NCCCCC(NC(=O)NC(CCC(=O)O)C(=O)O)C(=O)O.[Lu+3] (stereo not drawn) [([α,β-^3H]Nal)Lu-PSMA-617]
Uptake via transporter (PEPT2) (human PEPT2; pH 5.0 and 6.0, absence and presence of cefadroxil): not taken up | Accumulation in PEPT2 transporter expressing cells (human PEPT2; [1]): 0.16 ± 0.03 pmol/mg protein | Accumulation in control cells (human PEPT2; [1]): 0.08 ± 0.00 pmol/mg protein | Accumulation, active transport (human PEPT2; [1]): 0.08 ± 0.03 pmol/mg protein | Fold accumulation (human PEPT2; [1]): 1.94 | Accumulation in PEPT2 transporter expressing cells (human PEPT2; [2]): 0.16 ± 0.03 pmol/mg protein | Accumulation in control cells (human PEPT2; [2]): 0.12 ± 0.01 pmol/mg protein | Accumulation, active transport (human PEPT2; [2]): 0.04 ± 0.03 pmol/mg protein | Fold accumulation (human PEPT2; [2]): 1.34 | Accumulation in PEPT2 transporter expressing cells (human PEPT2; [3]): 1.58 ± 0.48 pmol/mg protein | Accumulation in control cells (human PEPT2; [3]): 0.70 ± 0.12 pmol/mg protein | Accumulation, active transport (human PEPT2; [3]): 0.88 ± 0.50 pmol/mg protein | Fold accumulation (human PEPT2; [3]): 2.27 | Accumulation in PEPT2 transporter expressing cells (human PEPT2; [4]): 1.70 ± 0.50 pmol/mg protein | Accumulation in control cells (human PEPT2; [4]): 0.87 ± 0.16 pmol/mg protein | Accumulation, active transport (human PEPT2; [4]): 0.83 ± 0.53 pmol/mg protein | Fold accumulation (human PEPT2; [4]): 1.95 | Max. transporter-specific fold accumulation, without inhibitor (human PEPT2; pH 5.0): 1.95 | Max. transporter-specific fold accumulation, with inhibitor (human PEPT2; pH 5.0): 2.27 | Accumulation in PEPT2 transporter expressing cells (human PEPT2; [5]): 0.17 ± 0.05 pmol/mg protein | Accumulation in control cells (human PEPT2; [5]): 0.08 ± 0.01 pmol/mg protein | Accumulation, active transport (human PEPT2; [5]): 0.09 ± 0.05 pmol/mg protein | Fold accumulation (human PEPT2; [5]): 2.21 | Accumulation in PEPT2 transporter expressing cells (human PEPT2; [6]): 0.15 ± 0.05 pmol/mg protein | Accumulation in control cells (human PEPT2; [6]): 0.10 ± 0.04 pmol/mg protein | Accumulation, active transport (human PEPT2; [6]): 0.06 ± 0.06 pmol/mg protein | Fold accumulation (human PEPT2; [6]): 1.57 | Accumulation in PEPT2 transporter expressing cells (human PEPT2; [7]): 1.57 ± 0.55 pmol/mg protein | Accumulation in control cells (human PEPT2; [7]): 0.70 ± 0.16 pmol/mg protein | Accumulation, active transport (human PEPT2; [7]): 0.88 ± 0.58 pmol/mg protein | Fold accumulation (human PEPT2; [7]): 2.26 | Accumulation in PEPT2 transporter expressing cells (human PEPT2; [8]): 1.57 ± 0.45 pmol/mg protein | Accumulation in control cells (human PEPT2; [8]): 0.87 ± 0.07 pmol/mg protein | Accumulation, active transport (human PEPT2; [8]): 0.70 ± 0.45 pmol/mg protein | Fold accumulation (human PEPT2; [8]): 1.81 | Max. transporter-specific fold accumulation, without inhibitor (human PEPT2; pH 6.0): 1.81 | Max. transporter-specific fold accumulation, with inhibitor (human PEPT2; pH 6.0): 2.26 | Inhibitor assessment (MDR1) (MDR1; 0.30 and 3.00 µM, inhibition >20% defined as significant): no inhibitor | Relative inhibition (MDR1; test substance 0.30 µM nominal): 8% | ATP dependent transport (MDR1; test substance 0.30 µM nominal): 4902.67 ± 183.91 pmol/mg/min | Relative ATP dependent transport (MDR1; test substance 0.30 µM nominal): 91.93 ± 3.56 % of control | Relative inhibition (MDR1; test substance 3.00 µM nominal): -5% | ATP dependent transport (MDR1; test substance 3.00 µM nominal): 5625.67 ± 230.64 pmol/mg/min | Relative ATP dependent transport (MDR1; test substance 3.00 µM nominal): 105.48 ± 4.44 % of control
